What was measured:
Assay in all cases: relative viability (nuclei count vs DMSO), 5 days (fraction); higher = more cells survive
NCI-H1944 = test system: NCI-H1944
How it was run: (§1)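 Relative viability divides the nuclei count in treated wells by that in vehicle wells. Lung cancer cell lines were seeded in 1536-well plates, dosed by pin tool the next day, and fixed and stained after 5 days in one step with final 0.05% Triton X-100, 1% formaldehyde and 1 ug/ml Hoechst. Dosing was a single drug or a fixed anchor-drug dose plus five library-drug doses (not always all listed) in √10 steps, and values are medians of duplicate plates imaged at 4×.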

NCI-H1437 = test system: NCI-H1437
How it was run: as §1

NCI-H1650 = test system: NCI-H1650
How it was run: as §1

HCC-827 = test system: HCC-827
How it was run: as §1

RERF-LC-KJ = test system: RERF-LC-KJ
How it was run: as §1

NCI-H647 = test system: NCI-H647
How it was run: as §1

NCI-H2087 = test system: NCI-H2087
How it was run: as §1

NCI-H322M = test system: NCI-H322M
How it was run: as §1

NCI-H2405 = test system: NCI-H2405
How it was run: as §1

LCLC-103H = test system: LCLC-103H
How it was run: as §1

CAL-12T = test system: CAL-12T
How it was run: as §1

In the case of `COc1cc2nccc(Oc3ccc(NC(=O)Nc4cc(C)on4)c(Cl)c3)c2cc1OC` [Tivozanib] + CS(=O)(=O)N1CCN(Cc2cc3nc(-c4cccc5[nH]ncc45)nc(N4CCOCC4)c3s2)CC1 [Pictilisib] (partner 1 µM), the relative viability (NCI-H1944; first compound 0.005 µM) is reported as 0.327, the relative viability (NCI-H1944; first compound 0.01581 µM) is reported as 0.365 and the relative viability (NCI-H1944; first compound 0.05 µM) is reported as 0.356. It also gave a relative viability (NCI-H1944; first compound 0.1581 µM) of 0.289, a relative viability (NCI-H1944; first compound 0.5 µM) of 0.307 and a relative viability (NCI-H1437; first compound 0.005 µM) of 0.347. The relative viability (NCI-H1437; first compound 0.01581 µM) was 0.463, the relative viability (NCI-H1437; first compound 0.05 µM) was 0.401 and the relative viability (NCI-H1437; first compound 0.1581 µM) was 0.177. The relative viability (NCI-H1437; first compound 0.5 µM) was 0.52, the relative viability (NCI-H1650; first compound 0.005 µM) was 0.561 and the relative viability (NCI-H1650; first compound 0.01581 µM) was 0.594. It also gave a relative viability (NCI-H1650; first compound 0.05 µM) of 0.621, a relative viability (NCI-H1650; first compound 0.1581 µM) of 0.558 and a relative viability (NCI-H1650; first compound 0.5 µM) of 0.498. It also gave a relative viability (HCC-827; first compound 0.005 µM) of 0.864, a relative viability (HCC-827; first compound 0.01581 µM) of 0.924 and a relative viability (HCC-827; first compound 0.05 µM) of 1.01. For the same molecule, the relative viability (HCC-827; first compound 0.1581 µM) was 1.24, the relative viability (HCC-827; first compound 0.5 µM) was 0.982 and the relative viability (RERF-LC-KJ; first compound 0.005 µM) was 0.509. The relative viability (RERF-LC-KJ; first compound 0.01581 µM) was 0.471, the relative viability (RERF-LC-KJ; first compound 0.05 µM) was 0.533 and the relative viability (RERF-LC-KJ; first compound 0.1581 µM) was 0.356. The relative viability (RERF-LC-KJ; first compound 0.5 µM) was 0.586, the relative viability (NCI-H647; first compound 0.005 µM) was 0.419 and the relative viability (NCI-H647; first compound 0.01581 µM) was 0.438. For the same molecule, the relative viability (NCI-H647; first compound 0.05 µM) was 0.402, the relative viability (NCI-H647; first compound 0.1581 µM) was 0.296 and the relative viability (NCI-H647; first compound 0.5 µM) was 0.227. For the same molecule, the relative viability (NCI-H2087; first compound 0.005 µM) was 0.765, the relative viability (NCI-H2087; first compound 0.01581 µM) was 1.08 and the relative viability (NCI-H2087; first compound 0.05 µM) was 0.851. It also gave a relative viability (NCI-H2087; first compound 0.1581 µM) of 0.738, a relative viability (NCI-H2087; first compound 0.5 µM) of 1.02 and a relative viability (NCI-H322M; first compound 0.005 µM) of 0.484. For the same molecule, the relative viability (NCI-H322M; first compound 0.01581 µM) was 0.518, the relative viability (NCI-H322M; first compound 0.05 µM) was 0.529 and the relative viability (NCI-H322M; first compound 0.1581 µM) was 0.465. It also gave a relative viability (NCI-H322M; first compound 0.5 µM) of 0.568, a relative viability (NCI-H2405; first compound 0.005 µM) of 0.34 and a relative viability (NCI-H2405; first compound 0.01581 µM) of 0.398. For the same molecule, the relative viability (NCI-H2405; first compound 0.05 µM) was 0.428, the relative viability (NCI-H2405; first compound 0.1581 µM) was 0.312 and the relative viability (NCI-H2405; first compound 0.5 µM) was 0.342. It also gave a relative viability (LCLC-103H; first compound 0.005 µM) of 0.58, a relative viability (LCLC-103H; first compound 0.01581 µM) of 0.735 and a relative viability (LCLC-103H; first compound 0.05 µM) of 0.604. It also gave a relative viability (LCLC-103H; first compound 0.1581 µM) of 0.602, a relative viability (LCLC-103H; first compound 0.5 µM) of 0.591 and a relative viability (CAL-12T; first compound 0.005 µM) of 0.212. The relative viability (CAL-12T; first compound 0.01581 µM) was 0.445.

Source: the supplement of paper PMC10307832
